Reference: PubChem BioAssay AID1963863 (Molecular Pharmacology Branch, DTP, NCI, 2024)

Test system: 931267-113-T-J1-PDC KRAS spheroid with HUVEC/MSC, viability
Assay: Anticancer human tumor 931267-113-T-J1-PDC patient-derived colon adenocarcinoma cell line growth inhibition [KRAS2]
Conditions: for IC50: curve of first compound; for viability, T/C: stronger effect = lower value
Method in brief: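 Combination screen of spheroid viability in tumor-cell co-cultures with endothelial (HUVEC) and mesenchymal stem cell stroma. Each agent was tested in half-log dilutions, topping at clinical Cmax or at 10 microM without a known Cmax.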

[1] = second compound 0.0316 µM, first compound 0.0316 µM
[2] = second compound 0.0316 µM, first compound 0.1 µM
[3] = second compound 0.0316 µM, first compound 0.316 µM
[4] = second compound 0.0316 µM, first compound 1 µM
[5] = second compound 0.0316 µM, first compound 3.16 µM
[6] = second compound 0.0316 µM, first compound 10 µM
[7] = second compound 0.1 µM, first compound 0.0316 µM
[8] = second compound 0.1 µM, first compound 0.1 µM
[9] = second compound 0.1 µM, first compound 0.316 µM
[10] = second compound 0.1 µM, first compound 1 µM
[11] = second compound 0.1 µM, first compound 3.16 µM
[12] = second compound 0.1 µM, first compound 10 µM
[13] = second compound 0.316 µM, first compound 0.0316 µM
[14] = second compound 0.316 µM, first compound 0.1 µM
[15] = second compound 0.316 µM, first compound 0.316 µM
[16] = second compound 0.316 µM, first compound 1 µM
[17] = second compound 0.316 µM, first compound 3.16 µM
[18] = second compound 0.316 µM, first compound 10 µM
[19] = second compound 1 µM, first compound 0.0316 µM
[20] = second compound 1 µM, first compound 0.1 µM
[21] = second compound 1 µM, first compound 0.316 µM
[22] = second compound 1 µM, first compound 1 µM
[23] = second compound 1 µM, first compound 3.16 µM
[24] = second compound 1 µM, first compound 10 µM
[25] = second compound 3.16 µM, first compound 0.0316 µM
[26] = second compound 3.16 µM, first compound 0.1 µM
[27] = second compound 3.16 µM, first compound 0.316 µM
[28] = second compound 3.16 µM, first compound 1 µM
[29] = second compound 3.16 µM, first compound 3.16 µM
[30] = second compound 3.16 µM, first compound 10 µM
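Note: compound exposure lasted 7 days before the readout.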
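Throughout, for viability, T/C: 100% = DMSO vehicle control viability.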

| SMILES | IC50 (second compound 0.1 µM) [nM] | IC50 (second compound 0.316 µM) [nM] | IC50 (second compound 1 µM) [nM] | IC50 (second compound 3.16 µM) [nM] | viability, T/C [7] [%] | viability, T/C [8] [%] | viability, T/C [9] [%] | viability, T/C [10] [%] | viability, T/C [11] [%] | viability, T/C [13] [%] | viability, T/C [14] [%] | viability, T/C [15] [%] | viability, T/C [16] [%] | viability, T/C [17] [%] | viability, T/C [19] [%] | viability, T/C [20] [%] | viability, T/C [21] [%] | viability, T/C [22] [%] | viability, T/C [23] [%] | viability, T/C [25] [%] | also measured |
| --- | --- | --- | --- | --- | --- | --- | --- | --- | --- | --- | --- | --- | --- | --- | --- | --- | --- | --- | --- | --- | --- |
| CC1OCC2(CCN(c3cnc(Sc4ccnc(N)c4Cl)c(N)n3)CC2)C1N (stereo not given) + C=CC(=O)N1CCN(c2nc(OCC3CCCN3C)nc3c2CCN(c2cccc4cccc(C)c24)C3)CC1CC#N | > 10000 | > 10000 | > 10000 | < 31.6 | 98.3 | 75.6 | 79.1 | 75.2 | 71.1 | 93 | 87.8 | 69.1 | 70.2 | 75.6 | 78 | 65.9 | 55.2 | 68.7 | 68.8 | 0.31 | IC50 (second compound 0.0316 µM): > 10000 nM; viability, T/C [1]: 111%; viability, T/C [2]: 81.9%; viability, T/C [3]: 77.3%; viability, T/C [4]: 58.2%; viability, T/C [5]: 80%; viability, T/C [6]: 83%; viability, T/C [12]: 99.3%; viability, T/C [18]: 69.6%; viability, T/C [24]: 61.2%; viability, T/C [26]: 0.29%; viability, T/C [27]: 0.36%; viability, T/C [28]: 0.26%; viability, T/C [29]: 0.28%; viability, T/C [30]: 0.26% |
| Cn1nccc1Nc1nccc(-c2cc3c(s2)C(C)(C)N(CCN2CCOCC2)C3=O)n1 + C=CC(=O)N1CCN(c2nc(OCC3CCCN3C)nc3c2CCN(c2cccc4cccc(C)c24)C3)CC1CC#N | 526 | 400 | 365 | < 31.6 | 88.9 | 92 | 57.8 | 37.8 | 4.83 | 107 | 91 | 55.7 | 25.5 | 6.39 | 88.5 | 65.9 | 59.7 | 23.2 | 3.82 | 0.35 | IC50 (second compound 0.0316 µM): 424 nM; viability, T/C [1]: 118%; viability, T/C [2]: 97.7%; viability, T/C [3]: 59.8%; viability, T/C [4]: 23%; viability, T/C [5]: 7.09%; viability, T/C [6]: 4.66%; viability, T/C [12]: 4.43%; viability, T/C [18]: 4.33%; viability, T/C [24]: 2.07%; viability, T/C [26]: 0.25%; viability, T/C [27]: 0.29%; viability, T/C [28]: 0.14%; viability, T/C [29]: 0.14%; viability, T/C [30]: 0.22% |
| CC(=O)OC12COC1CC(O)C1(C)C(=O)C(O)C3=C(C)C(OC(=O)C(O)C(NC(=O)OC(C)(C)C)c4ccccc4)CC(O)(C(OC(=O)c4ccccc4)C21)C3(C)C (stereo not given) + CC1OCC2(CCN(c3cnc(Sc4ccnc(N)c4Cl)c(N)n3)CC2)C1N | > 3160 | > 3160 | > 3160 | 289 | 90.5 | 74.8 | 80 | 86.2 | 91.4 | 90.5 | 64.9 | 65.4 | 78.6 | 58.5 | 111 | 108 | 82.8 | 79.5 | 93.2 | 74.3 | IC50 (second compound 10 µM): 278 nM; viability, T/C (second compound 0.1 µM, first compound 0.01 µM): 88.4%; viability, T/C (second compound 0.316 µM, first compound 0.01 µM): 74.8%; viability, T/C (second compound 1 µM, first compound 0.01 µM): 95.2%; viability, T/C (second compound 3.16 µM, first compound 0.01 µM): 52.3%; viability, T/C [26]: 53%; viability, T/C [27]: 50.6%; viability, T/C [28]: 48.9%; viability, T/C [29]: 49.7%; viability, T/C (second compound 10 µM, first compound 0.01 µM): 59%; viability, T/C (second compound 10 µM, first compound 0.0316 µM): 63.4%; viability, T/C (second compound 10 µM, first compound 0.1 µM): 66.8%; viability, T/C (second compound 10 µM, first compound 0.316 µM): 38%; viability, T/C (second compound 10 µM, first compound 1 µM): 50.4%; viability, T/C (second compound 10 µM, first compound 3.16 µM): 56.6% |
